Data reported in ChEMBL document CHEMBL4823307, “Discovery of benzimidazole derivatives as potent and selective aldehyde dehydrogenase 1A1 (ALDH1A1) inhibitors with glucose consumption improving activity” (Bioorg Med Chem, 2021).

Key:
[1] = biological target: T1, Aldehyde dehydrogenase, dimeric NADP-preferring (Homo sapiens, UniProt P30838); test: Inhibition of human ALDH3A1 assessed as NADH formation using propionaldehyde as substrate by spectrophotometry
T1 sequence (P30838 whole entry): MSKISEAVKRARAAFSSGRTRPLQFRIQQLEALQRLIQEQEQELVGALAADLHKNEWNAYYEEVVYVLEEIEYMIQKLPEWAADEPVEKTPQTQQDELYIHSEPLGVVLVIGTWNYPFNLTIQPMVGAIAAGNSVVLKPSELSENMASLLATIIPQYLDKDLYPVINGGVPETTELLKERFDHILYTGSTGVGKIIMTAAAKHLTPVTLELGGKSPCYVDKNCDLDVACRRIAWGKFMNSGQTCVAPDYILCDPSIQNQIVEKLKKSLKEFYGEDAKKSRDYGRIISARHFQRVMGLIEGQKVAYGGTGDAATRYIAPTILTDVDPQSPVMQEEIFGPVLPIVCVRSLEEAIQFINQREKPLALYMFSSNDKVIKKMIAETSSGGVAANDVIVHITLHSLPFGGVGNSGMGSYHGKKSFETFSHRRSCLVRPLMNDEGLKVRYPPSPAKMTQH

[2] = Cytotoxicity against human HepG2 cells assessed as cell viability at 0.1 uM incubated for 24 hrs by MTT assay relative to control; assay type: cell-based; details: read-out: Activity
[3] = Metabolic stability in human liver microsomes assessed as intrinsic clearance at 2 ug/ml measured up to 45 mins by LC-MS/MS analysis; assay type: ADME, Microsome; details: dose 2 µg/ml, read-out: CLH
[4] = Metabolic stability in human liver microsomes assessed as first order elimination rate constant at 2 ug/ml measured up to 45 mins by LC-MS/MS analysis; assay type: ADME, Microsome; details: dose 2 µg/ml
[5] = biological target: T2, Retinaldehyde dehydrogenase 3 (Homo sapiens, UniProt P47895); test: Inhibition of human ALDH1A3 assessed as NADH formation using propionaldehyde as substrate by spectrophotometry
T2 sequence (P47895 whole entry): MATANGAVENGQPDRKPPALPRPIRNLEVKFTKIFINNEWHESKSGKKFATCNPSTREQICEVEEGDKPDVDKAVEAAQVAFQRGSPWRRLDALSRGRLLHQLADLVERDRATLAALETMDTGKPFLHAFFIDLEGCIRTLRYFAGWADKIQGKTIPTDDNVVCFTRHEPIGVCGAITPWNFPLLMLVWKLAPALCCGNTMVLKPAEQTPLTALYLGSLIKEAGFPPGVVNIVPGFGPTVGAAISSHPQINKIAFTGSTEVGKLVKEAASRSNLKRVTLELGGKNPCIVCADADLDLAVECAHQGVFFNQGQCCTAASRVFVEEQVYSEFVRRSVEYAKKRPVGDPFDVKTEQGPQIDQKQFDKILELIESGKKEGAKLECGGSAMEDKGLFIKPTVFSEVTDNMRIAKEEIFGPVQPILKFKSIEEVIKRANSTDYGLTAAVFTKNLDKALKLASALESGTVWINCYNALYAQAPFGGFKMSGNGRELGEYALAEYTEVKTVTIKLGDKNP

[6] = biological target: T3, Retinal dehydrogenase 2 (Homo sapiens, UniProt O94788); test: Inhibition of human ALDH1A2 assessed as NADH formation using propionaldehyde as substrate by spectrophotometry
T3 sequence (O94788 whole entry): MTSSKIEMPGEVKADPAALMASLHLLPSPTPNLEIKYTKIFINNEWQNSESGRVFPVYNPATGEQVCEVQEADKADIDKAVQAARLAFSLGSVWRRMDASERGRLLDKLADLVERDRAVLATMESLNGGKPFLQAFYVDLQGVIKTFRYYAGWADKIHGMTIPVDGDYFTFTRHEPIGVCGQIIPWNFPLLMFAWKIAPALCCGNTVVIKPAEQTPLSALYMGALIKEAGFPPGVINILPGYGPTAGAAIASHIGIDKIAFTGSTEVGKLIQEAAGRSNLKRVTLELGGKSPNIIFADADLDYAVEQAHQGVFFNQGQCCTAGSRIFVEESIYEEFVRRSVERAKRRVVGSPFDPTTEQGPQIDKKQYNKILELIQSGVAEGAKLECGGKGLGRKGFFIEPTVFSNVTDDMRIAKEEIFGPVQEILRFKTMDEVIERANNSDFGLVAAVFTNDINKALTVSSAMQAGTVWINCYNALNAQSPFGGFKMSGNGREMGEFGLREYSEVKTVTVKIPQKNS

[7] = test system: HepG2; test: Cytotoxicity against human HepG2 cells assessed as morphological changes at 0.1 to 10 uM incubated for 24 hrs; assay type: cell-based; details: hepg2, 24 h, dose 0.1-10 µM
[8] = Metabolic stability in human liver microsomes assessed as half life at 2 ug/ml measured up to 45 mins by LC-MS/MS analysis; assay type: ADME, Microsome; details: dose 2 µg/ml
[9] = biological target: T4, Aldehyde dehydrogenase, mitochondrial (Homo sapiens, UniProt P05091); test: Inhibition of human ALDH2 assessed as NADH formation using propionaldehyde as substrate by spectrophotometry
T4 sequence (P05091 whole entry): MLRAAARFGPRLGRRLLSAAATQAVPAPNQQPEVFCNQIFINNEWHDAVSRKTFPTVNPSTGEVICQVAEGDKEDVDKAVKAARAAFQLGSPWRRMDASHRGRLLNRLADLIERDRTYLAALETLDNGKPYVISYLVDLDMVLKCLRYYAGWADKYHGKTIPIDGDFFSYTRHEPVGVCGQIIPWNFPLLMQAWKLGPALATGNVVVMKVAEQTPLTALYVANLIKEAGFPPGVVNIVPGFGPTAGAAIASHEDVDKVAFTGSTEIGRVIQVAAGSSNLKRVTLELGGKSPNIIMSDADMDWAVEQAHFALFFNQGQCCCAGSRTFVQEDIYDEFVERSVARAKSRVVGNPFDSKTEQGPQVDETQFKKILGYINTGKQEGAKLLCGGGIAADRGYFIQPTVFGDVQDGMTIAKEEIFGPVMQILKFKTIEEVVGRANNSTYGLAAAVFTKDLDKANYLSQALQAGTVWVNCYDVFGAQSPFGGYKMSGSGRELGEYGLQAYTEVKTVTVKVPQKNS

[10] = Cytotoxicity against human HepG2 cells assessed as cell viability at 10 uM incubated for 24 hrs by MTT assay relative to control; assay type: cell-based; details: read-out: Activity
[11] = Cytotoxicity against human HepG2 cells assessed as cell viability at 1 uM incubated for 24 hrs by MTT assay relative to control; assay type: cell-based; details: read-out: Activity
[12] = test system: HepG2; test: Increase in glucose consumption in human HepG2 cells at 10 uM by glucose oxidase assay; assay type: functional
[13] = biological target: T5, Aldehyde dehydrogenase 1A1 (Homo sapiens, UniProt P00352); test: Inhibition of human ALDH1A1 assessed as NADH formation using propionaldehyde as substrate by spectrophotometry
T5 sequence (P00352 whole entry): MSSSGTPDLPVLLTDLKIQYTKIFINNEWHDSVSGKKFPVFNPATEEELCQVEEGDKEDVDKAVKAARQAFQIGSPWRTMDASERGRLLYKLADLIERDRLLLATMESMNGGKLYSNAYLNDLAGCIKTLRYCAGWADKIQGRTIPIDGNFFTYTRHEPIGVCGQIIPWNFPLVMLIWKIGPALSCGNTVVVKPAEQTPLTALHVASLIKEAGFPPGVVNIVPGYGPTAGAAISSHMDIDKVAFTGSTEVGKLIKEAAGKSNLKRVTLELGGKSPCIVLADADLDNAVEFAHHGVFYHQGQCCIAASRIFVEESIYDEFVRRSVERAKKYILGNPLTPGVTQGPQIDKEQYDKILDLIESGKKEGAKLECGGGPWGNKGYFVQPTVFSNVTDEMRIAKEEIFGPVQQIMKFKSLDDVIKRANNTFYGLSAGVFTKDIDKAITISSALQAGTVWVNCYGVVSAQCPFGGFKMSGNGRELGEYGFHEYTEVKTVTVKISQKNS

[14] = biological target: T6, Aldehyde dehydrogenase 1A1 (Homo sapiens) (UniProt P00352); test: Inhibition of human ALDH1A1 assessed as NADH formation using propionaldehyde as substrate at 10 uM by spectrophotometry
T6 sequence (whole entry): T5 sequence (P00352 whole entry)

Row | SMILES | IC50 [1] [µM] | viability at 24 h, 0.1 µM [2] [%] | microsomal CLint at 2 ug/ml [3] [µL/min/mg] | k el at 0.75 h, 2 ug/ml [4] [s⁻¹] | IC50 [5] [µM] | IC50 [6] [µM] | Activity [7] | half-life at 2 ug/ml [8] [min] | IC50 [9] [µM] | viability at 24 h, 10 µM [10] [%] | viability at 24 h, 1 µM [11] [%] | Activity [12] [%] | IC50 [13] [µM] | inhibition [14] [%]
1 | O=C(C1CC1)N1CCN(Cc2nc3ccccc3n2Cc2ccccc2Cl)CC1 | 1.9 | 93.8 | 88 | 0.000367 | 2.41 | 1.97 | Non-Toxic | 32 | 3.16 | 85.7 | 91.9 | 28 | 1.02 | 78.3
2 | O=C(C1CC1)N1CCN(Cc2nc3ccccc3n2Cc2cccc(C(F)(F)F)c2)CC1 |  | 95.9 | 104 | 0.000433 | 0.59 | 1.37 | Non-Toxic | 27 | 2.17 | 90 | 91.8 | 30 | 0.921 | 82.1
3 | Cc1cccc(Cn2c(CN3CCN(C(=O)C4CC4)CC3)nc3ccccc32)c1 |  | 93.4 | 80 | 0.000333 | 2.12 | 1.58 | Non-Toxic | 35 | 0.79 | 90 | 91.3 | 25 | 0.243 | 89.1
4 | CC(C)=CCn1c(CN2CCN(C(=O)C3CC3)CC2)nc2ccccc21 | 2.15 |  |  |  | 1.27 | 1.62 |  |  | 1.48 |  |  |  | 1.5 | 74.3
5 | O=C(C1CC1)N1CCN(Cc2nc3ccccc3n2Cc2cccc(Cl)c2)CC1 | 1.45 |  |  |  | 1.01 | 0.89 |  |  | 2.31 |  |  |  | 2.11 | 71.6
